Consider 24 molecules from patent US10888550B2, “Pyrazole derivatives as MALT1 inhibitors” (Janssen Pharmaceutica NV, priority 2018, dated 2021).

In experiment [1] the target is full-length MALT1 protein (Strep-MALT1(1-824)-His) (Homo sapiens (Human), UniProt Q9UDY8). In words: MALT1 Biochemical Protease Assay. The following applies: read-out: MALT1_Biochemical activity (Ac-LRSR-amc) IC50; 10 nM FL MALT1, 200 μM Ac-LRSR-AMC, 50 min pre-incubation, 4 h at RT. From the text:
From this an ICso value (inhibitory concentration causing 50% inhibition) can be obtained.

Experiment [2] has as its system IL6 secretion, OCI-LY3 cells. In words: Human IL6 Mesoscale assay (OCI-LY3). Format: cell-based. The following applies: 24 h incubation.
For experiment [3], the system named is IL10 secretion, OCI-LY3 cells. As to the kind of experiment: Human IL10 Mesoscale assay (OCI-LY3). It counts as cell-based. The following applies: 24 h incubation.

Structures are written as SMILES.

full-length MALT1 protein (Strep-MALT1(1-824)-His), sequence (Q9UDY8 whole entry): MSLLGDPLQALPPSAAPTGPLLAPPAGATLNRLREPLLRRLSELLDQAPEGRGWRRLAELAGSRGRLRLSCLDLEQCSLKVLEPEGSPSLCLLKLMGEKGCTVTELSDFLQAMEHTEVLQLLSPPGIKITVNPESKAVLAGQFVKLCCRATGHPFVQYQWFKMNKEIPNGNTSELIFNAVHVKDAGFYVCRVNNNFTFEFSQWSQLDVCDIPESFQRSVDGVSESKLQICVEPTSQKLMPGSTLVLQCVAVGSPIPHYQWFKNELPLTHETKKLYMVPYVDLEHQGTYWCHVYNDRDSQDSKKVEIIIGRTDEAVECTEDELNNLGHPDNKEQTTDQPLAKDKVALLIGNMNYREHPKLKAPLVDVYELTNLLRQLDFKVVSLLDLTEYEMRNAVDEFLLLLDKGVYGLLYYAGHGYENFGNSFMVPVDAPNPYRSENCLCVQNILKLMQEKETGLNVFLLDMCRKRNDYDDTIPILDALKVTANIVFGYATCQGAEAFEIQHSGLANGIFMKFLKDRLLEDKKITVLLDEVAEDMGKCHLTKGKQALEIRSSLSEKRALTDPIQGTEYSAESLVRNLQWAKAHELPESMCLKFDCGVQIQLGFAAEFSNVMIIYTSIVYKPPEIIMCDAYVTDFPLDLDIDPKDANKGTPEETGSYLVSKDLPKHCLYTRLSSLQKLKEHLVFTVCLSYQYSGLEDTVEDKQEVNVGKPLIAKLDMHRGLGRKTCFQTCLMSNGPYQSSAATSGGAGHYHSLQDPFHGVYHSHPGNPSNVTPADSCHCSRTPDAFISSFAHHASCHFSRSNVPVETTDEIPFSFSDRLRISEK

Turning to `CO[C@@H](C)c1ncc(NC(=O)c2cnn(-c3ccc(F)c4nccn34)c2C(F)(F)F)cc1Cl` (single isomer, unassigned) [Cpd 17, (*S)—N-(5-chloro-6-(1-methoxyethyl)pyridin-3-yl)-1-(8-fluoroimidazo[1,2-a]pyridin-5-yl)-5-(trifluoromethyl)-1H-pyrazole-4-carboxamide], the IC50 (usually the midpoint of a concentration-inhibition curve) in experiment [1] stood at 2340 nM.
`O=C(Nc1cnc([C@H]2CCCO2)c(Cl)c1)c1cnn(-c2ccc(Cl)c3nccn23)c1C(F)(F)F` (single isomer, unassigned) [Cpd 18, (*R)—N-(5-chloro-6-(tetrahydrofuran-2-yl)pyridin-3-yl)-1-(8-chloroimidazo[1,2-a]pyridin-5-yl)-5-(trifluoromethyl)-1H-pyrazole-4-carboxamide]: the 50% inhibitory concentration (IC50) in experiment [1] is 2190 nM.
`CO[C@H](C)c1ncc(NC(=O)c2cnn(-c3ccc(F)c4nccn34)c2C(F)(F)F)cc1Cl` (single isomer, unassigned) [Cpd 19, (*R)—N-(5-chloro-6-(1-methoxyethyl)pyridin-3-yl)-1-(8-fluoroimidazo[1,2-a]pyridin-5-yl)-5-(trifluoromethyl)-1H-pyrazole-4-carboxamide]: in experiment [1], the half-inhibitory concentration (IC50) amounted to 2820 nM.
`O=C(Nc1cnc([C@@H]2CCCO2)c(Cl)c1)c1cnn(-c2ccc(Cl)c3nccn23)c1C(F)(F)F` (single isomer, unassigned) [Cpd 20, (*S)—N-(5-chloro-6-(tetrahydrofuran-2-yl)pyridin-3-yl)-1-(8-chloroimidazo[1,2-a]pyridin-5-yl)-5-(trifluoromethyl)-1H-pyrazole-4-carboxamide]: the IC50 in experiment [1] turned out to be 355 nM.
With `O=C(Nc1cnc([C@@H]2CCCO2)c(Cl)c1)c1cnn(-c2ccc(Cl)n3nccc23)c1C(F)(F)F` (single isomer, unassigned) [Cpd 21, (*S)—N-(5-chloro-6-(tetrahydrofuran-2-yl)pyridin-3-yl)-1-(7-chloropyrazolo[1,5-a]pyridin-4-yl)-5-(trifluoromethyl)-1H-pyrazole-4-carboxamide], the IC50 in experiment [2] was 245 nM; in experiment [1], 87 nM; in experiment [3], 200 nM.
On to `O=C(Nc1cnc([C@H]2CCCO2)c(Cl)c1)c1cnn(-c2ccc(Cl)n3nccc23)c1C(F)(F)F` (single isomer, unassigned) [Cpd 22, (*R)—N-(5-chloro-6-(tetrahydrofuran-2-yl)pyridin-3-yl)-1-(7-chloropyrazolo[1,5-a]pyridin-4-yl)-5-(trifluoromethyl)-1H-pyrazole-4-carboxamide], for which, in experiment [1], the IC50 worked out at 977 nM.
`N#Cc1ccc(-n2ncc(C(=O)Nc3cnc([C@@H]4CCCO4)c(Cl)c3)c2C(F)(F)F)c2ccnn12` (single isomer, unassigned) [Cpd 23, (*S)—N-(5-chloro-6-(tetrahydrofuran-2-yl)pyridin-3-yl)-1-(7-cyanopyrazolo[1,5-a]pyridin-4-yl)-5-(trifluoromethyl)-1H-pyrazole-4-carboxamide]: the results for the IC50 in experiment [2], in experiment [1] and in experiment [3] were 200 nM, 36 nM and 115 nM, respectively.
Consider `N#Cc1ccc(-n2ncc(C(=O)Nc3cnc([C@H]4CCCO4)c(Cl)c3)c2C(F)(F)F)c2ccnn12` (single isomer, unassigned) [Cpd 24, (*R)—N-(5-chloro-6-(tetrahydrofuran-2-yl)pyridin-3-yl)-1-(7-cyanopyrazolo[1,5-a]pyridin-4-yl)-5-(trifluoromethyl)-1H-pyrazole-4-carboxamide], for which, in experiment [1], the IC50 is 251 nM.
Same read-out and setting: the result for `CO[C@@H](C)c1ncc(NC(=O)c2cnn(-c3ccc(C#N)n4nccc34)c2C(F)(F)F)cc1Cl` (single isomer, unassigned) [Cpd 25, (*S)—N-(5-chloro-6-(1-methoxyethyl)pyridin-3-yl)-1-(7-cyanopyrazolo[1,5-a]pyridin-4-yl)-5-(trifluoromethyl)-1H-pyrazole-4-carboxamide] reads 457 nM.
As for `CO[C@H](C)c1ncc(NC(=O)c2cnn(-c3ccc(C#N)n4nccc34)c2C(F)(F)F)cc1Cl` (single isomer, unassigned) [Cpd 26, (*R)—N-(5-chloro-6-(1-methoxyethyl)pyridin-3-yl)-1-(7-cyanopyrazolo[1,5-a]pyridin-4-yl)-5-(trifluoromethyl)-1H-pyrazole-4-carboxamide], the IC50 in experiment [1] was found to be 562 nM.
Same read-out and setting: with `CO[C@@H](C)c1ncc(NC(=O)c2cnn(-c3ccc(Cl)n4nccc34)c2C(F)(F)F)cc1Cl` (single isomer, unassigned) [Cpd 27, (*S)—N-(5-chloro-6-(1-methoxyethyl)pyridin-3-yl)-1-(7-chloropyrazolo[1,5-a]pyridin-4-yl)-5-(trifluoromethyl)-1H-pyrazole-4-carboxamide] the figure was 1020 nM; with `CO[C@H](C)c1ncc(NC(=O)c2cnn(-c3ccc(Cl)n4nccc34)c2C(F)(F)F)cc1Cl` (single isomer, unassigned) [Cpd 28, (*R)—N-(5-chloro-6-(1-methoxyethyl)pyridin-3-yl)-1-(7-chloropyrazolo[1,5-a]pyridin-4-yl)-5-(trifluoromethyl)-1H-pyrazole-4-carboxamide], 1320 nM.
As to `NC(=O)c1ccc(-n2ncc(C(=O)Nc3cnc(-n4nccn4)c(Cl)c3)c2C(F)(F)F)n2ccnc12` [Cpd 1, 5-(4-((5-chloro-6-(2H-1,2,3-triazol-2-yl)pyridin-3-yl)carbamoyl)-5-(trifluoromethyl)-1H-pyrazol-1-yl)imidazo[1,2-a]pyridine-8-carboxamide], the IC50 stood at 91 nM in experiment [2], 49 nM in experiment [1] and 87 nM in experiment [3].
For `N#Cc1ccc(-n2ncc(C(=O)Nc3cnc(-n4nccn4)c(Cl)c3)c2C(F)(F)F)n2ccnc12` [Cpd 2, N-(5-chloro-6-(2H-1,2,3-triazol-2-yl)pyridin-3-yl)-1-(8-cyanoimidazo[1,2-a]pyridin-5-yl)-5-(trifluoromethyl)-1H-pyrazole-4-carboxamide], in that order: 83 nM, 38 nM and 47 nM.
For `O=C(Nc1cnc(-n2cccn2)c(Cl)c1)c1cnn(-c2ccc(F)c3nccn23)c1C(F)(F)F` [Cpd 3, N-(5-chloro-6-(1H-pyrazol-1-yl)pyridin-3-yl)-1-(8-fluoroimidazo[1,2-a]pyridin-5-yl)-5-(trifluoromethyl)-1H-pyrazole-4-carboxamide], in that order: 151 nM, 251 nM and 114 nM.
For `O=C(Nc1cnc(-n2nccn2)c(C(F)(F)F)c1)c1cnn(-c2ccc(F)c3nccn23)c1C(F)(F)F` [Cpd 4, N-(6-(2H-1,2,3-triazol-2-yl)-5-(trifluoromethyl)pyridin-3-yl)-1-(8-fluoroimidazo[1,2-a]pyridin-5-yl)-5-(trifluoromethyl)-1H-pyrazole-4-carboxamide], in that order: 47 nM, 50 nM and 31 nM.
On to `CS(=O)(=O)c1ncc(NC(=O)c2cnn(-c3ccc(F)c4nccn34)c2C(F)(F)F)cc1C(F)(F)F` [Cpd 5, 1-(8-fluoroimidazo[1,2-a]pyridin-5-yl)-N-(6-(methylsulfonyl)-5-(trifluoromethyl)pyridin-3-yl)-5-(trifluoromethyl)-1H-pyrazole-4-carboxamide], for which the IC50 in experiment [2] worked out at 281 nM; in experiment [1], 372 nM; in experiment [3] it was 371 nM.
As to `O=C(Nc1cnc(-c2ncco2)c(Cl)c1)c1cnn(-c2ccc(F)c3nccn23)c1C(F)(F)F` [Cpd 6, N-(5-chloro-6-(oxazol-2-yl)pyridin-3-yl)-1-(8-fluoroimidazo[1,2-a]pyridin-5-yl)-5-(trifluoromethyl)-1H-pyrazole-4-carboxamide], the IC50 in experiment [2] is 257 nM; in experiment [1], 30 nM; in experiment [3], 105 nM.
Regarding `CS(=O)(=O)c1c(C(=O)Nc2cnc(-n3nccn3)c(Cl)c2)cnn1-c1ccc(F)c2nccn12` [Cpd 8, N-(5-chloro-6-(2H-1,2,3-triazol-2-yl)pyridin-3-yl)-1-(8-fluoroimidazo[1,2-a]pyridin-5-yl)-5-(methylsulfonyl)-1H-pyrazole-4-carboxamide], in experiment [1], the IC50 was 457 nM.
Same read-out and setting: the result for `Cc1cc(NC(=O)c2cnn(-c3ccc(F)c4nccn34)c2C(F)(F)F)cnc1N=S(C)(C)=O` [Cpd 29, N-(6-((dimethyl(oxo)-λ^6-sulfanylidene)amino)-5-methylpyridin-3-yl)-1-(8-fluoroimidazo[1,2-a]pyridin-5-yl)-5-(trifluoromethyl)-1H-pyrazole-4-carboxamide] reads 6000 nM; that for `CS(C)(=O)=Nc1ncc(NC(=O)c2cnn(-c3ccc(F)c4nccn34)c2C(F)(F)F)cc1C(F)(F)F` [Cpd 30, N-(6-((dimethyl(oxo)-λ^6-sulfanylidene)amino)-5-(trifluoromethyl)pyridin-3-yl)-1-(8-fluoroimidazo[1,2-a]pyridin-5-yl)-5-(trifluoromethyl)-1H-pyrazole-4-carboxamide], 830 nM; that for `CS(=N)(=O)c1ncc(NC(=O)c2cnn(-c3ccc(F)c4nccn34)c2C(F)(F)F)cc1C(F)(F)F` (stereo not shown) [Cpd 31, 1-(8-fluoroimidazo[1,2-a]pyridin-5-yl)-N-(6-(S-methylsulfonimidoyl)-5-(trifluoromethyl)pyridin-3-yl)-5-(trifluoromethyl)-1H-pyrazole-4-carboxamide], 3160 nM.
Consider `CS(C)(=O)=Nc1ncc(NC(=O)c2cnn(-c3ccc(F)c4nccn34)c2C(F)(F)F)cc1F` [Cpd 32, N-(6-((dimethyl(oxo)-λ^6-sulfanylidene)amino)-5-fluoropyridin-3-yl)-1-(8-fluoroimidazo[1,2-a]pyridin-5-yl)-5-(trifluoromethyl)-1H-pyrazole-4-carboxamide], for which, in experiment [1], the IC50 stood at 8130 nM.
For the molecule `CS(C)(=O)=Nc1ncc(NC(=O)c2cnn(-c3ccc(F)c4nccn34)c2C(F)(F)F)cc1Cl` [Cpd 33, N-(5-chloro-6-((dimethyl(oxo)-λ^6-sulfanylidene)amino)pyridin-3-yl)-1-(8-fluoroimidazo[1,2-a]pyridin-5-yl)-5-(trifluoromethyl)-1H-pyrazole-4-carboxamide], in experiment [1], the concentration for half-maximal inhibition (IC50) was found to be 980 nM.
